# Tests used:
# [1] = Determination of the solubility of felodipine at pH 1.2 (orbital shaker, 24 hours, SGFsp, HPLC); format: physicochemical; conditions: SGFsp medium buffered to pH 1.2, simulated gastric fluid, thermodynamic from solid, SGFsp pH 1.2, 37° C., 10 mg in 20 ml, read-out: solubility of felodipine alone at pH 1.2
# Experimental: Felodipine has a solubility in water of <1 mg/l […]. The solubility for felodipine was determined for comparison in a medium buffered to pH 1.2 (SGFsp pH 1.2). For this purpose, 10 mg were kept in motion at 37° C. on an orbital shaker in 20 ml of medium for 24 hours. The concentration was determined by means of HPLC. For felodipine alone, without inventive formulation, a solubility of 0.5 mg/l was determined.
# [2] = cited from earlier work
compound,measurement,setting,value
"CCOC(=O)C1=C(C)NC(C)=C(C(=O)OC)C1c1cccc(Cl)c1Cl (centres unmarked) [felodipine alone, felodipine]",solubility at 24 h,[1],0.5 µg/mL
same,solubility in water,[2],< 1 µg/mL

# Source: US20090011007A1, “Pharmaceutical Compositions Containing Mixtures of Polymers and Active Agents Poorly Soluble in Water” (Evonik Roehm GmbH, priority 2006, published 2009)
